Measured values as given in ChEMBL document CHEMBL1201862, “PubChem BioAssay data set” (2004).
The source made the active and inactive calls.

How the values were obtained:
[1] = cytotoxicity in BJeHLT fibroblasts, dose response, counter-screen for Ras selective lethality project, BJeHLT cells, dry powder (AID 493052); assay type: functional, cell-based; details: Homo sapiens
[2] = cytotoxicity in BJeH fibroblasts, dose response, counter-screen for Ras selective lethality project, BJeH cells, dry powder (AID 493054); assay type: functional, cell-based
[3] = viability loss in HRASV12 DRD fibroblasts, dose response, cell-based, DRD BJ fibroblasts, dry powder (AID 493049); assay type: functional
[4] = viability loss in BJeLR (HRASV12) cells, primary screen, Ras selective lethality project, cell-based, Alamar Blue, dry powder (AID 493045); assay type: functional
Vero [5] = experiment: cytotoxicity of synthesized analogs in Vero 76, SAR follow-up, cytotoxicity control for West Nile virus antiviral project, Vero 76 cells (AID 2414); assay type: functional; details: Chlorocebus sabaeus
Vero [6] = experiment: cytotoxicity of synthesized analogs in Vero cells, SAR follow-up, cytotoxicity control for West Nile virus antiviral project, cell-based, set II (AID 2402); assay type: functional; details: Chlorocebus sabaeus
Vero [7] = experiment: Vero E6 cell cytotoxicity, SAR follow-up, cytotoxicity control for West Nile virus antiviral project, synthesized analogs (AID 2244); assay type: functional; details: Chlorocebus sabaeus
Vero [8] = experiment: West Nile virus CPE inhibition, SAR follow-up, cell-based, synthesized analogs (AID 2238); assay type: functional; details: Chlorocebus sabaeus
[9] = target: NACHT, LRR and PYD domains-containing protein 1 (Homo sapiens, UniProt Q9C000); experiment: NALP1 inhibitors in yeast, dose response, luminescent (AID 488860); assay type: functional
Saccharomyces cerevisiae = experiment: NALP1 inhibitor project selectivity study, Caspase-1/ASC signal blockade IC50 in S. cerevisiae (AID 488863); assay type: functional, organism-based
Beta Lactamase = Beta Lactamase (Pseudomonas aeruginosa, UniProt Q932Y6); experiment: beta-lactamase reporter inhibitor potency, dose response, artefact control for TLR9-MyD88 binding inhibitor project, BLA reporter cells, FRET fluorescence (AID 588341); assay type: cell-based;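 further: cell based assay in CHO-K1 cells stably expressing beta-lactamase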
CHO = experiment: cytotoxicity in TLR9-MyD88 CHO cells, dose response, cytotoxicity control for TLR9-MyD88 binding inhibitor project, cell-based, luminescence (AID 588339); assay type: functional, hamster; details: Cricetulus griseus;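 further: CHO cells stably coexpressing TLR9 and MyD88 fusions from primary screen; compound exposure lasted 48 hours before viability readout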
HEK293 [10] = experiment: cells; details: Homo sapiens
[11] = target: T1, Replicative DNA helicase DnaB (Mycobacterium tuberculosis, UniProt P9WMR3); experiment: DnaB intein splicing inhibitors, dose response, biochemical, cell-free fluorescence (AID 449749); assay type: functional
T1 sequence (P9WMR3 whole entry): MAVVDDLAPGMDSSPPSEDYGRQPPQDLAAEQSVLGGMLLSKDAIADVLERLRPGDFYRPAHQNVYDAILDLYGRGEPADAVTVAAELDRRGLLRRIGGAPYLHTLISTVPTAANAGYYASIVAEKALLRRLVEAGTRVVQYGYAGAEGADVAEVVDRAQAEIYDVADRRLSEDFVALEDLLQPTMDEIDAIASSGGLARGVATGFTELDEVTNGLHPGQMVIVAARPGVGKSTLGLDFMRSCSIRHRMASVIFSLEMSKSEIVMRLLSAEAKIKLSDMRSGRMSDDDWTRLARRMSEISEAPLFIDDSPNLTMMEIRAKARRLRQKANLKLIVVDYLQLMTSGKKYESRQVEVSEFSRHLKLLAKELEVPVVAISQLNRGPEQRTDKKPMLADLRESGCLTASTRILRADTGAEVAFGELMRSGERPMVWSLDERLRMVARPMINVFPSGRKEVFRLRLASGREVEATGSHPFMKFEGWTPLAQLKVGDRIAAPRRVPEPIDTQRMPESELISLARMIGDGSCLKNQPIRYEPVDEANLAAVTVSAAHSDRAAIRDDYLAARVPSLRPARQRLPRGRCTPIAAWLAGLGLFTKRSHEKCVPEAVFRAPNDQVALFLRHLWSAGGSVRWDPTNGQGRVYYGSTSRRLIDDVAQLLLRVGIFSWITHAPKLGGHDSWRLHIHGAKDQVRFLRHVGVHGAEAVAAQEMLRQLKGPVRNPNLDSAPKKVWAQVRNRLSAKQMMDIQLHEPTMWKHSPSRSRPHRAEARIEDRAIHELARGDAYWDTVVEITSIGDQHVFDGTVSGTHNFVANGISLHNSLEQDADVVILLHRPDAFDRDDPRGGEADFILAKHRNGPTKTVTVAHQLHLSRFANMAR

Beta-galactosidase = Beta-galactosidase (Escherichia coli, UniProt Q8VNN2); experiment: beta-galactosidase enzyme inhibitors and activators, dose response, artefact control for CCR6 antagonist project, biochemical, E. coli enzyme, set 3 (AID 504712); assay type: functional
Protein RecA = target: T2, Protein RecA (Mycobacterium tuberculosis, UniProt P9WHJ3); experiment: Fluorescence Cell-Free Homogeneous Dose Retest to Identify Inhibitors of RecA-Intein Splicing Activity. [Related pubchem assays (depositor defined):AID2097, AID2223, AID489010, AID492950]; assay type: functional
T2 sequence (P9WHJ3 whole entry): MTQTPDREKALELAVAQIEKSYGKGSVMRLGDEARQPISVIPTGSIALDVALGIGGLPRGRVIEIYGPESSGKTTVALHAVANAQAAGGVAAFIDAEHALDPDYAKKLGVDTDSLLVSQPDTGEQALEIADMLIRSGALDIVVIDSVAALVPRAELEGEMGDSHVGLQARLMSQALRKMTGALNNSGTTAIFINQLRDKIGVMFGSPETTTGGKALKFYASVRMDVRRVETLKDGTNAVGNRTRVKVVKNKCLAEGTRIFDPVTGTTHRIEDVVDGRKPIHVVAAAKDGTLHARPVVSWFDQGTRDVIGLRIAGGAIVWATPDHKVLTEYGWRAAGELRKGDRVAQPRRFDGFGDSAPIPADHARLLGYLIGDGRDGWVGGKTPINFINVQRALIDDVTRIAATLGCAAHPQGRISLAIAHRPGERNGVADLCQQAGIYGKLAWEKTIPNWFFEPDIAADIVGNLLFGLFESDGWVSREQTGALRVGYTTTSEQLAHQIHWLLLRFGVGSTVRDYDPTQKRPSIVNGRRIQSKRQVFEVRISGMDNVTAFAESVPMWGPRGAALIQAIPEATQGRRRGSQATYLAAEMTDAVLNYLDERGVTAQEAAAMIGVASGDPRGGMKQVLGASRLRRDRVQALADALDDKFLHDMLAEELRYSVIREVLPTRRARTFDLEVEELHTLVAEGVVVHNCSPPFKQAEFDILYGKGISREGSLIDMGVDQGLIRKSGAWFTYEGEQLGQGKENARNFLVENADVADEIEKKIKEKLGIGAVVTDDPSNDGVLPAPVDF

[12] = target: G-protein coupled receptor 35 (Homo sapiens, UniProt Q9HC97); experiment: GPR35 antagonists blocking zaprinast-driven arrestin recruitment, primary screen, imaging, U2OS, beta-arrestin-GFP, zaprinast agonist (AID 2058); assay type: functional;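 further: antagonist potency meaning inhibition of agonist-induced arrestin redistribution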
[13] = target: T3, Heat shock factor protein 1 (Mus musculus, UniProt P38532); experiment: inhibition of MG132-induced HSE-luciferase signal, confirmation, cell-based, NIH3T3, luminescence, dose retest (AID 2382); assay type: functional;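 further: NIH3T3 fibroblasts with HSF1-driven luciferase reporter stressed by proteasome inhibitor MG132; luminescence from HSF1-driven luciferase expression after 8 hours of MG132 stress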
T3 sequence (P38532 whole entry): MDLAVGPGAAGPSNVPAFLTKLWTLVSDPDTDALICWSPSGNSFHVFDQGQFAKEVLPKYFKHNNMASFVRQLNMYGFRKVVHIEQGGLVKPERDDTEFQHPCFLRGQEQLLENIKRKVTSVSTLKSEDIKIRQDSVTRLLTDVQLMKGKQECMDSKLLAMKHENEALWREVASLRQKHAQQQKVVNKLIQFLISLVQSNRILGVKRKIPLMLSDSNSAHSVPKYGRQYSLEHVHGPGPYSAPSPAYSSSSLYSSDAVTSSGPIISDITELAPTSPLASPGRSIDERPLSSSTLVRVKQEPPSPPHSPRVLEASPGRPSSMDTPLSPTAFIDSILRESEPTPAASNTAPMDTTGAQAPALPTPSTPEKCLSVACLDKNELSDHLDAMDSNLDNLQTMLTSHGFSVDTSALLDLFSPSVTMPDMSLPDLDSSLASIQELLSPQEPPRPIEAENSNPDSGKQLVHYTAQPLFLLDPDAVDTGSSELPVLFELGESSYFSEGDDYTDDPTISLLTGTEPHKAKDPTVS

HEK293 [14] = experiment: cells; details: Homo sapiens; remark: listed apart in the source
[15] = target: T4, Short transient receptor potential channel 4 (Mus musculus, UniProt Q9QUQ5); experiment: TRPC4 positive allosteric modulators, dose response, cell-based, HEK293 TRPC4/mu-opioid, Fluo-4 calcium, EC20 DAMGO (AID 434941); assay type: functional
T4 sequence (Q9QUQ5 whole entry): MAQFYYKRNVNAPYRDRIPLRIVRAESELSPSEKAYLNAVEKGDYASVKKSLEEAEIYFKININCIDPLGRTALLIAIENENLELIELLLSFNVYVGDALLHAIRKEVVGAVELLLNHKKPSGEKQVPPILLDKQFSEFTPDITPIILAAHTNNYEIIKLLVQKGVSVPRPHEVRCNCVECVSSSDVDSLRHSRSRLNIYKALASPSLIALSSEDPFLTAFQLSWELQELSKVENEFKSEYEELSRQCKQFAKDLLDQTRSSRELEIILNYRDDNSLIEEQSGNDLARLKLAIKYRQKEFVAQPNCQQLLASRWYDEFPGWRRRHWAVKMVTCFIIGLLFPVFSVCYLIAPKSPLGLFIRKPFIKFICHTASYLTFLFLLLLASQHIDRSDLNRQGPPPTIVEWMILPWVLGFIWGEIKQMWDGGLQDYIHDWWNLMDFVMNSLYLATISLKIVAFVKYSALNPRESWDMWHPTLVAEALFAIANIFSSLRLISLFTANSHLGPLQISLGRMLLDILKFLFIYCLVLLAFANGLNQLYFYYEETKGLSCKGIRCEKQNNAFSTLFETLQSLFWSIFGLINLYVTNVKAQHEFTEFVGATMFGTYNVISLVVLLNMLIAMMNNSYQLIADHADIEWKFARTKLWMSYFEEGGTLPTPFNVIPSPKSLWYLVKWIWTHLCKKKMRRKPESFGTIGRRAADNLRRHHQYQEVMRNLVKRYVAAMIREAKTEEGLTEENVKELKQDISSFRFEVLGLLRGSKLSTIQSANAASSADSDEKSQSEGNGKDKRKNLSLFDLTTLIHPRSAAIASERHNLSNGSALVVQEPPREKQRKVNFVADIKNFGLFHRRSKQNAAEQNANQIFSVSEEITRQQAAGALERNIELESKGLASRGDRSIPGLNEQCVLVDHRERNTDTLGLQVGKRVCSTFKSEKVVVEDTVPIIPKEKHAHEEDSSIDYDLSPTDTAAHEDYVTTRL

[16] = target: T5, Polyadenylate-binding protein 1 (Homo sapiens, UniProt P11940); experiment: PABP poly(A) RNA binding inhibitors, primary screen, biochemical, fluorescence polarization, uHTS (AID 2014)
[17] = target: T6, Eukaryotic translation initiation factor 4H (Homo sapiens, UniProt Q15056); experiment: eIF4H inhibition in translation initiation, SAR follow-up (AID 435011); assay type: functional
[18] = target: T6, Eukaryotic translation initiation factor 4H; experiment: human eIF4H binding inhibitors, primary screen, translation initiation inhibitor project, biochemical, uHTS, fluorescence polarization (AID 2012)
[19] = target: T5, Polyadenylate-binding protein 1; experiment: PABP inhibition in translation initiation, SAR follow-up (AID 435018); assay type: functional

T5 sequence (P11940 whole entry): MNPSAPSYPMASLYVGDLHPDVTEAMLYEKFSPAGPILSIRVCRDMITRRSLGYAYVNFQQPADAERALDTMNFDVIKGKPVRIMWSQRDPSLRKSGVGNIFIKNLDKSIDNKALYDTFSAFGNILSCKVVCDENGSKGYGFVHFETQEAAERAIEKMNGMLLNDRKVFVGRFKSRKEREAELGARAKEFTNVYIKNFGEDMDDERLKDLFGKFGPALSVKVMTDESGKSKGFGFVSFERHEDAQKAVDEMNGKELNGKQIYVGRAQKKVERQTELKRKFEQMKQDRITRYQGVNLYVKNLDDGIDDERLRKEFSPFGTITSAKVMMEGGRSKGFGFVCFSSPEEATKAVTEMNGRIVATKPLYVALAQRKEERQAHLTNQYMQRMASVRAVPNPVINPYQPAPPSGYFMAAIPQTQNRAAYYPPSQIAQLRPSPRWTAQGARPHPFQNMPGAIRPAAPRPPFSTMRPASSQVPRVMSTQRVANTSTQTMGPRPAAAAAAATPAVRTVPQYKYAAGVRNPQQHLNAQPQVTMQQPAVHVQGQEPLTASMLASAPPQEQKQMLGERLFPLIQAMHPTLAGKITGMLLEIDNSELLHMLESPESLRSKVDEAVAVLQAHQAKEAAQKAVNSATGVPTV
Chain of Beta Lactamase (Q932Y6 whole entry, the tested form may be a part): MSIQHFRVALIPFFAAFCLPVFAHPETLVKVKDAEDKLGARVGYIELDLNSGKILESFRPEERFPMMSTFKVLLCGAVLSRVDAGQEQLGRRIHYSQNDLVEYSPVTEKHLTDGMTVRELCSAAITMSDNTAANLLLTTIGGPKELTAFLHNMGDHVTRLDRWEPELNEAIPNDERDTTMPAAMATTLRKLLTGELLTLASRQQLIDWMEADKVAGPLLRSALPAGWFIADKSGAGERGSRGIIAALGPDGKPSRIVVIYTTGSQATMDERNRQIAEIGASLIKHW
Chain of Beta-galactosidase (Q8VNN2 whole entry): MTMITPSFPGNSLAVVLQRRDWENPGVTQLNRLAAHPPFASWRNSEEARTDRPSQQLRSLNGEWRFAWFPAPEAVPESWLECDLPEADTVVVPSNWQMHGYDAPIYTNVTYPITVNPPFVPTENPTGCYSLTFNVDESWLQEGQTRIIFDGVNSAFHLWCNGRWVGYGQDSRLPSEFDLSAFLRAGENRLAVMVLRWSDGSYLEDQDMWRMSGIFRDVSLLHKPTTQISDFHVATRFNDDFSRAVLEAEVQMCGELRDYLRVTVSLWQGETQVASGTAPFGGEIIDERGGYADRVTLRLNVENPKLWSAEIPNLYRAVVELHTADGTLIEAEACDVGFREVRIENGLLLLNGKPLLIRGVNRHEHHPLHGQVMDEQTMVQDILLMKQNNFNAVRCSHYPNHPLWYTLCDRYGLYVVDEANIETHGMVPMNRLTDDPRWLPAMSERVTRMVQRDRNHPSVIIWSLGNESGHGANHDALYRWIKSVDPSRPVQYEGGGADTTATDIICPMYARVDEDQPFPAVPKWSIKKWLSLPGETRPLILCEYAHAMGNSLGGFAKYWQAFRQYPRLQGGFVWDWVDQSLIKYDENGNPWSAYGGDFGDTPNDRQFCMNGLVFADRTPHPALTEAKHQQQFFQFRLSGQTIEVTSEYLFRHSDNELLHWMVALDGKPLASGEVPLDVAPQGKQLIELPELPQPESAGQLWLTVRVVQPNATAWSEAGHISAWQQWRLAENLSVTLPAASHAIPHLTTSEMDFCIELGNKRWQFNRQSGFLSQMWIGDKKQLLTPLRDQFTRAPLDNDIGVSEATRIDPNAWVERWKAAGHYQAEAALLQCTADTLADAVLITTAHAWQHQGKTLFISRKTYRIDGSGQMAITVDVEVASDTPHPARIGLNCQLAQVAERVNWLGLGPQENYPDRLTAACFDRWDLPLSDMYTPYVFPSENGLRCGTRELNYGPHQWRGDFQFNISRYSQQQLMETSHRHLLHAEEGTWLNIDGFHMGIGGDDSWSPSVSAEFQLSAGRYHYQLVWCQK
Chain of NACHT, LRR and PYD domains-containing protein 1 (Q9C000 1-1212 limits assumed): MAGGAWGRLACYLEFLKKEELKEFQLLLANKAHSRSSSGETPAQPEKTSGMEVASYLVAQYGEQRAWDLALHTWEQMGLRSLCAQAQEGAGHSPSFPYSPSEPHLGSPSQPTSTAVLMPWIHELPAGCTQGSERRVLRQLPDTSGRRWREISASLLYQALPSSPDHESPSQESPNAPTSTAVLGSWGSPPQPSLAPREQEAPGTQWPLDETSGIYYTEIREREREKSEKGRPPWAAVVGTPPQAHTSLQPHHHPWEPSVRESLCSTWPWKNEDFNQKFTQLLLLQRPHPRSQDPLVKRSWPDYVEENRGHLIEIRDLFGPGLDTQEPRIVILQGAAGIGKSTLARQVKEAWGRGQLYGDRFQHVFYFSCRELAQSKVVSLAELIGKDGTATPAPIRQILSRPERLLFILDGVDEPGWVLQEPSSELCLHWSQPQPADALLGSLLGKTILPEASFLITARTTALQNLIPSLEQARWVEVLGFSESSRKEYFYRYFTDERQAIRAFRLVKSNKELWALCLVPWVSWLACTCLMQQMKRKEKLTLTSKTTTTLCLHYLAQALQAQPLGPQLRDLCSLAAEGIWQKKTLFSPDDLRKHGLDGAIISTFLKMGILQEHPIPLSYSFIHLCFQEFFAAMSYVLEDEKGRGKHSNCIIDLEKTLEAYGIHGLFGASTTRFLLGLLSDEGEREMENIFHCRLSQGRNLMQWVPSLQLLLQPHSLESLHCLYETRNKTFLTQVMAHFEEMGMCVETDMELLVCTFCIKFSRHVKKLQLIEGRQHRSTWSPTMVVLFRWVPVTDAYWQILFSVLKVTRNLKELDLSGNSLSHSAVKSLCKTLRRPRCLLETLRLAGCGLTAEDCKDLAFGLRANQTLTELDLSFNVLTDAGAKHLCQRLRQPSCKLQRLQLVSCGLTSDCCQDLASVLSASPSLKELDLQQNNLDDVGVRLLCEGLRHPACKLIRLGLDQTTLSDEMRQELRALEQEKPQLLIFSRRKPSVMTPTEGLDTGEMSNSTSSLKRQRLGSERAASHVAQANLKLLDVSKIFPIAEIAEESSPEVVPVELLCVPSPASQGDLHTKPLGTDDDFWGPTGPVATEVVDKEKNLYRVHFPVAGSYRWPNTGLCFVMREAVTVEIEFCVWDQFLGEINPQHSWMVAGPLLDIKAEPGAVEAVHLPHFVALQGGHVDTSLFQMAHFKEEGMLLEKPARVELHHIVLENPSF
Chain of NACHT, LRR and PYD domains-containing protein 1 (Q9C000 1213-1473 limits assumed): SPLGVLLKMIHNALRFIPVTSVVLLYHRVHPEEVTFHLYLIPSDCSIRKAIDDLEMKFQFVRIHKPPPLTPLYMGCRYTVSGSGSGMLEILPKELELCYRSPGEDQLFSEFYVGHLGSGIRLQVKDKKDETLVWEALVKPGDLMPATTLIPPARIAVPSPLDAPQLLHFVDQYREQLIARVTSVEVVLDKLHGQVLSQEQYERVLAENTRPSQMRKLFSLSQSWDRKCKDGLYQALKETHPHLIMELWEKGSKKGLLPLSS
Chain of G-protein coupled receptor 35 (Q9HC97 whole entry): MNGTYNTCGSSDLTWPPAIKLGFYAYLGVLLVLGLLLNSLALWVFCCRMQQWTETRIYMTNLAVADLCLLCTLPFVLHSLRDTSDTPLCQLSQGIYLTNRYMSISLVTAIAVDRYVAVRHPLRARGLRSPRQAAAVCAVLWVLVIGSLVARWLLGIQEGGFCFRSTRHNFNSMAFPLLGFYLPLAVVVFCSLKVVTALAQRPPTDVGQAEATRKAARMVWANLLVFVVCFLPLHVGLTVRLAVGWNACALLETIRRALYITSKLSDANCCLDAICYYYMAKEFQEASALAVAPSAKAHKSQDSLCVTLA

Question: Which AC50 [1] does the source give for `COc1ccc(C(C(=O)NC2CCCCC2)N(C(=O)CCl)c2ccc(OC)c(Cl)c2)cc1` (centres undefined) here?
Answer: Its AC50 is 0.366 µM (active).

Question: And the AC50 [2]?
Answer: Its AC50 is 0.536 µM (active).

Question: And the AC50 [3]?
Answer: The AC50 was 0.126 µM (active).

Question: What about the AC50 [4] of the same compound?
Answer: Its AC50 is 0.122 µM (active).

Question: Which results are given for `O=C(CSc1nc2ccccc2c(=O)n1-c1ccccc1F)Nc1ccc2c(c1)CCC2`?
Answer: CC50 (Vero [5]): > 66.6 µM (active); CC50 (Vero [6]): > 100 µM (active); CC50 (Vero [7]): > 40 µM (active); IC50 (Vero [8]): 16.4 µM (active)

Question: Which IC50 [9] does the source give for `CC(NC(=O)/C(C#N)=C/c1ccc([N+](=O)[O-])o1)c1ccccc1` (centres undefined) here?
Answer: The IC50 was 14.3 µM (active).

Question: What about the IC50 (Saccharomyces cerevisiae) of the same compound?
Answer: Its IC50 is 9.51 µM (active).

Question: What about the IC50 (Beta Lactamase) of the same compound?
Answer: The IC50 was 8.23 µM (active).

Question: What about the IC50 (CHO) of the same compound?
Answer: Its IC50 is 4.03 µM (active).

Question: And the EC50 (HEK293 [10])?
Answer: The EC50 was > 59.6 µM (inactive).

Question: And the AC50 [11]?
Answer: The AC50 was > 120 µM (inactive).

Question: What about the IC50 (Beta-galactosidase) of the same compound?
Answer: Its IC50 is > 66.6 µM (inactive).

Question: What about the EC50 (Protein RecA) of the same compound?
Answer: Its EC50 is 35 µM (active).

Question: And the IC50 [12]?
Answer: The IC50 was 3.85 µM (active).

Question: And the EC50 [13]?
Answer: The EC50 was 6.1 µM (active).

Question: What about the EC50 (HEK293 [14]) of the same compound?
Answer: Its EC50 is > 59.6 µM (inactive).

Question: With `Cc1ccc(C(C)C)cc1OCCCCN1CCCC1` as the compound, how does the EC50 [15] read?
Answer: The EC50 was 0.53 µM (active).

Question: Which IC50 [16] does the source give for `O=C(Nc1cccc2ncccc12)c1ccccc1Cl` here?
Answer: Its IC50 is 4 µM (active).

Question: What about the IC50 [17] of the same compound?
Answer: Its IC50 is 9.25 µM (active).

Question: And the IC50 [18]?
Answer: Its IC50 is > 100 µM (inactive).

Question: And the IC50 [19]?
Answer: Its IC50 is 1.68 µM (active).
